In PubChem BioAssay (NCI):
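Five compound concentrations were applied to cells in 96-well plates for 48 hours; endpoints were derived by simple linear interpolation of the resulting dose-response curve. GI50 = concentration required for 50% inhibition of growth. TGI marks complete inhibition of growth.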

Columns and labels:
Experiment in all cases: NCI anticancer screen, dose series, 48 h
[1] = tested on: LOX IMVI melanoma
[2] = tested on: SK-OV-3 ovarian
[3] = tested on: OVCAR-8 ovarian
[4] = tested on: MCF7 breast
[5] = tested on: KM12 colon
[6] = tested on: OVCAR-5 ovarian
[7] = tested on: HOP-92 NSCLC
[8] = tested on: SR leukemia
[9] = tested on: NCI-H460 lung
[10] = tested on: 786-0 renal
[11] = tested on: SK-MEL-5 melanoma
[12] = tested on: PC-3 prostate
[13] = tested on: ACHN renal
[14] = tested on: UACC-62 melanoma
[15] = tested on: HL-60(TB) leukemia
[16] = tested on: EKVX NSCLC
[17] = tested on: MALME-3M melanoma
[18] = tested on: NCI-H23 lung
[19] = tested on: A549 NSCLC
[20] = tested on: SNB-75 CNS
[21] = tested on: UO-31 renal
[22] = tested on: DU-145 prostate
[23] = tested on: K-562 leukemia
[24] = tested on: NCI-H226 lung
[25] = tested on: T-47D breast
[26] = tested on: HCT-116 colon
[27] = tested on: TK-10 renal
[28] = tested on: HS 578T breast
[29] = tested on: IGROV1 ovarian
[30] = tested on: U251 CNS
[31] = tested on: SF-268 CNS
[32] = tested on: OVCAR-4 ovarian
[33] = tested on: MDA-MB-435
[34] = tested on: NCI/ADR-RES ovarian
[35] = tested on: SK-MEL-28 melanoma
[36] = tested on: HT29 colon
[37] = tested on: CCRF-CEM leukemia
[38] = tested on: SF-539 CNS
[39] = tested on: M14 melanoma
[40] = tested on: NCI-H522 lung
[41] = tested on: A498 renal
[42] = tested on: SNB-19 CNS
[43] = tested on: MOLT-4 leukemia
[44] = tested on: MDA-MB-231 breast
[45] = tested on: SK-MEL-2 melanoma
[46] = tested on: SW-620 colon
[47] = tested on: SN12C renal
[48] = tested on: BT-549 breast
[49] = tested on: COLO 205 colon
[50] = tested on: OVCAR-3 ovarian
[51] = tested on: CAKI-1 renal
[52] = tested on: HCC-2998 colon
[53] = tested on: RPMI-8226 leukemia
[54] = tested on: UACC-257 melanoma
[55] = tested on: HCT-15 colon
[56] = tested on: RXF 393 renal
[57] = tested on: HOP-62 NSCLC
[58] = tested on: SF-295 CNS

Q: What does the source list for `O=[N+]([O-])c1cccc(-c2cc(-c3cc(Br)ccc3O)[nH]n2)c1`?
A: GI50 [1]: 2.73 µM; TGI [1]: 8.62 µM; GI50 [2]: 2.37 µM; TGI [2]: 7.15 µM; GI50 [3]: 2.89 µM; TGI [3]: 10.5 µM; GI50 [4]: 1.42 µM; TGI [4]: 7.05 µM; GI50 [5]: 2.13 µM; TGI [5]: 6 µM; GI50 [6]: 3.81 µM; TGI [6]: 14.9 µM; GI50 [7]: 2.38 µM; TGI [7]: 8.08 µM; GI50 [8]: 1.66 µM; TGI [8]: 4.8 µM; GI50 [9]: 1.9 µM; TGI [9]: 10.4 µM; GI50 [10]: 1.7 µM; TGI [10]: 4.08 µM; GI50 [11]: 1.61 µM; TGI [11]: 3.35 µM; GI50 [12]: 3.48 µM; TGI [12]: 7.7 µM; GI50 [13]: 3.23 µM; GI50 [14]: 2.63 µM; TGI [14]: 11.7 µM; GI50 [15]: 1.15 µM; TGI [15]: 3.45 µM; GI50 [16]: 2 µM; TGI [16]: 7.91 µM; GI50 [17]: 2.21 µM; TGI [17]: 5.52 µM; GI50 [18]: 2.06 µM; TGI [18]: 6.11 µM; GI50 [19]: 2.42 µM; TGI [19]: 6.68 µM; GI50 [20]: 2.68 µM; TGI [20]: 14.5 µM; GI50 [21]: 2.34 µM; TGI [21]: 9.38 µM; GI50 [22]: 3.44 µM; TGI [22]: 12.3 µM; GI50 [23]: 1.66 µM; TGI [23]: 4.57 µM; GI50 [24]: 3.66 µM; TGI [24]: 27.2 µM; GI50 [25]: 2.64 µM; TGI [25]: 8.84 µM; GI50 [26]: 1.46 µM; TGI [26]: 2.86 µM; GI50 [27]: 2.26 µM; TGI [27]: 6.71 µM; GI50 [28]: 2.15 µM; TGI [28]: 9.29 µM; GI50 [29]: 2.27 µM; TGI [29]: 7.06 µM; GI50 [30]: 3.24 µM; TGI [30]: 11.9 µM; GI50 [31]: 2.86 µM; TGI [31]: 12.7 µM; GI50 [32]: 3.45 µM; TGI [32]: 17.3 µM; GI50 [33]: 1.77 µM; TGI [33]: 4.58 µM; GI50 [34]: 3.11 µM; TGI [34]: 8.94 µM; GI50 [35]: 2.88 µM; TGI [35]: 10.5 µM; GI50 [36]: 3.55 µM; TGI [36]: 12 µM; GI50 [37]: 3.94 µM; TGI [37]: 19.9 µM; GI50 [38]: 2.89 µM; TGI [38]: 11 µM; GI50 [39]: 2.08 µM; TGI [39]: 5.03 µM; GI50 [40]: 1.49 µM; TGI [40]: 3.66 µM; GI50 [41]: 1.86 µM; TGI [41]: 8.63 µM; GI50 [42]: 3.26 µM; TGI [42]: 12.3 µM; GI50 [43]: 1.72 µM; TGI [43]: 4.68 µM; GI50 [44]: 2.49 µM; TGI [44]: 9.87 µM; GI50 [45]: 1.99 µM; TGI [45]: 6.53 µM; GI50 [46]: 2.81 µM; TGI [46]: 12.3 µM; GI50 [47]: 3.19 µM; TGI [47]: 12.4 µM; GI50 [48]: 1.26 µM; TGI [48]: 4.61 µM; GI50 [49]: 2.23 µM; TGI [49]: 5.16 µM; GI50 [50]: 2.1 µM; TGI [50]: 5.8 µM; GI50 [51]: 1.81 µM; TGI [51]: 5.17 µM; GI50 [52]: 2.96 µM; TGI [52]: 12.1 µM; GI50 [53]: 1.47 µM; TGI [53]: 4.75 µM; GI50 [54]: 2.5 µM; TGI [54]: 6.49 µM; GI50 [55]: 2.53 µM; TGI [55]: 12.9 µM

Q: Which results are given for `CCOC(=O)C1=C(c2ccccc2)N(c2ccc(OC)cc2)[C@]2(C#N)C(O)=C(Cl)C(Cl)=C(O)[C@]12C#N`?
A: GI50 [1]: 16.4 µM; TGI [1]: 30.9 µM; GI50 [2]: 23.4 µM; TGI [2]: 62.7 µM; GI50 [3]: 33 µM; TGI [3]: > 100 µM; GI50 [4]: 18.7 µM; TGI [4]: 36.1 µM; GI50 [5]: 18.3 µM; TGI [5]: 36.5 µM; GI50 [6]: 18.5 µM; TGI [6]: 39 µM; GI50 [7]: 0.545 µM; TGI [7]: 23.3 µM; GI50 [8]: 11.5 µM; TGI [8]: 28.8 µM; GI50 [9]: 35 µM; TGI [9]: > 100 µM; GI50 [10]: 21.8 µM; TGI [10]: 44.9 µM; GI50 [11]: 22.1 µM; TGI [11]: 51.9 µM; GI50 [13]: 19.7 µM; TGI [13]: 42.1 µM; GI50 [15]: 24.5 µM; TGI [15]: 50.1 µM; GI50 [16]: 40.1 µM; TGI [16]: > 100 µM; GI50 [17]: 18.7 µM; TGI [17]: 42.6 µM; GI50 [18]: 17.7 µM; TGI [18]: 33.1 µM; GI50 [19]: 69.1 µM; TGI [19]: > 100 µM; GI50 [20]: 18.4 µM; TGI [20]: 36.7 µM; GI50 [21]: 24.6 µM; TGI [21]: 68 µM; GI50 [22]: 31.9 µM; TGI [22]: > 100 µM; GI50 [23]: 17.6 µM; TGI [23]: 34.6 µM; GI50 [24]: 20.2 µM; TGI [24]: 42.5 µM; GI50 [25]: 21.2 µM; TGI [25]: 44.9 µM; GI50 [26]: 16.3 µM; TGI [26]: 29.8 µM; GI50 [27]: 24.3 µM; TGI [27]: 74.8 µM; GI50 [28]: 43.5 µM; TGI [28]: > 100 µM; GI50 [29]: 21.7 µM; TGI [29]: 48.6 µM; GI50 [30]: 22.5 µM; TGI [30]: 52.5 µM; GI50 [31]: 24 µM; TGI [31]: 52.2 µM; GI50 [32]: 46.3 µM; TGI [32]: > 100 µM; GI50 [33]: 18.8 µM; TGI [33]: 37.1 µM; GI50 [34]: 15.6 µM; TGI [34]: 36.5 µM; GI50 [35]: 21.3 µM; TGI [35]: 41.9 µM; GI50 [56]: 17.4 µM; TGI [56]: 31.5 µM; GI50 [36]: 34.8 µM; TGI [36]: > 100 µM; GI50 [37]: 10.1 µM; TGI [37]: 23.6 µM; GI50 [38]: 24.5 µM; TGI [38]: 56.3 µM; GI50 [39]: 20.9 µM; TGI [39]: 41.3 µM; GI50 [40]: 21.3 µM; TGI [40]: 46.6 µM; GI50 [57]: 20.9 µM; TGI [57]: 40.1 µM; GI50 [41]: 35.8 µM; TGI [41]: > 100 µM; GI50 [42]: 20.5 µM; TGI [42]: 42.1 µM; GI50 [43]: 21.9 µM; TGI [43]: 56.9 µM; GI50 [44]: 20.1 µM; TGI [44]: 44.3 µM; GI50 [45]: 32.4 µM; TGI [45]: > 100 µM; GI50 [46]: 20.2 µM; TGI [46]: 38.4 µM; GI50 [47]: 18.8 µM; TGI [47]: 36.3 µM; GI50 [58]: 25.9 µM; TGI [58]: 76.7 µM; GI50 [48]: 24.2 µM; TGI [48]: 56.4 µM; GI50 [49]: 18.6 µM; TGI [49]: 33.5 µM; GI50 [50]: 22.7 µM; TGI [50]: 53.2 µM; GI50 [51]: 27.9 µM; TGI [51]: 80.1 µM; GI50 [53]: 1.97 µM; TGI [53]: 18 µM; GI50 [54]: 22.2 µM; TGI [54]: 52.2 µM; GI50 [55]: 19.2 µM; TGI [55]: 40.8 µM
